Consider one molecule from US6924296B2, “Antithrombotic agents” (Eli Lilly and Company, priority 2000, dated 2005).

Counter-ions that a name gives are not always drawn.

This test deals with human factor Xa (Homo sapiens, UniProt P00742). The test can be described thus: Factor Xa chromogenic substrate inhibitor binding affinity assay (apparent Kass). To be noted: 1.34 nM human factor Xa, 0.18 mM BzIle-Glu-Gly-Arg-pNA; mean value; read-out: Kass (apparent association constant) (converted). The method, then: The inhibition by a compound of the inhibition of a serine protease of the human blood coagulation system or of the fibrinolytic system, as well as of trypsin, is determined in vitro for the particular enzyme by measuring its inhibitor binding affinity in an assay in which the enzyme hydrolyzes a particular chromogenic substrate, for example as described in Smith, G. F.; Gifford-Moore, D.; Craft, T. J.; Chirgadze, N.; Ruterbories, K. J.; Lindstrom, T. D.; Satterwhite, J. H. Efegatran: A New Cardiovascular Anticoagulant. New Anticoagulants for the Cardiovascular Patient; Pifarre, R., Ed.; Hanley & Belfus, Inc.: Philadelphia, 1997; pp. 265-300. The inhibitor binding affinity is measured as apparent association constant Kass which is the hypothetical equilibrium constant for the reaction between enzyme and the test inhibitor compound (I).
Enzyme+I⇄Enzyme−I [formula]
Conveniently, enzyme inhibition kinetics are performed in 96-well polystyrene plates and reaction rates are determined from the rate of hydrolysis of appropriate p-nitroanilide substrates at 405 nm using a Thermomax plate reader from Molecular Devices (San Francisco, Calif.). […] The rates of chromogenic substrate hydrolysis reactions provide a linear relationship with the enzymes studied such that free enzyme can be quantitated in reaction mixtures. […]

human factor Xa, sequence (P00742 235-488 limits assumed): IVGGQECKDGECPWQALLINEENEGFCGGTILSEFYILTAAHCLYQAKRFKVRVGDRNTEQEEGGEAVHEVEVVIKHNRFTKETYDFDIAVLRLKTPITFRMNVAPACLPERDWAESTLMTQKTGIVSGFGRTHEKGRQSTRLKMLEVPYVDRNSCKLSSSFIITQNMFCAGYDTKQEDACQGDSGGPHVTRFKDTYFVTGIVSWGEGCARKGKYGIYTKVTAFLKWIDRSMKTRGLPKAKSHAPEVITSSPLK
human factor Xa, sequence (P00742 41-179 partner limits assumed): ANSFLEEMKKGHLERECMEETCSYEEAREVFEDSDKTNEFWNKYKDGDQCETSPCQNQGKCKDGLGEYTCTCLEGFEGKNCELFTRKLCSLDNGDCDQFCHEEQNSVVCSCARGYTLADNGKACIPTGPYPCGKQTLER

As to `O=C(NC1CCN(C(=O)C2CCN(c3ccncc3)CC2)C1)c1ccc2cc[nH]c2c1` (stereo not shown) [Example 1, 3-[(6-Indolyl)carbonyl]amino-1-[[1-(4-pyridinyl)piperidin-4-yl]carbonyl]pyrrolidine Hydrochloride Salt], the Kd is 472 nM.
